Measurements from the supplement of paper PMC10307832.

Tests used:
Assay in all cases: relative viability (nuclei count vs DMSO), 5 days (fraction); higher = more cells survive
[1] = compound: OCc1c[nH]c2ccccc12 [Indole-3-carbinol] + O=C(c1cc(Cc2n[nH]c(=O)c3ccccc23)ccc1F)N1CCN(C(=O)C2CC2)CC1 [Olaparib] (partner 8 µM)
How it was run: (§1)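 After 5 days of treatment, lung cancer cells in 1536-well plates were fixed and stained in a single step (final 0.05% Triton X-100, 1% formaldehyde, 1 ug/ml Hoechst) and their nuclei counted on 4× images. Treatment had been applied by pin tool the day after seeding as one drug alone or as a fixed anchor-drug dose with five library-drug doses (not always all listed) in √10 steps. Relative viability is the nuclei count of treated wells divided by that of vehicle wells, and values are medians of duplicate plates.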

[2] = compound: OCc1c[nH]c2ccccc12 [Indole-3-carbinol] + Nc1nc2[nH]cc(CCc3ccc(C(=O)N[C@@H](CCC(=O)O)C(=O)O)cc3)c2c(=O)[nH]1 [Pemetrexed] (partner 0.2 µM)
How it was run: as §1

[3] = compound: OCc1c[nH]c2ccccc12 [Indole-3-carbinol] + CC(=O)c1c(C)c2cnc(Nc3ccc(N4CCNCC4)cn3)nc2n(C2CCCC2)c1=O [Palbociclib] (partner 0.5 µM)
How it was run: as §1

[4] = compound: OCc1c[nH]c2ccccc12 [Indole-3-carbinol] + N=C(N)NC(=N)NCCc1ccccc1 [Phenformin] (partner 250 µM)
How it was run: as §1

[5] = compound: OCc1c[nH]c2ccccc12 [Indole-3-carbinol] + CS(=O)(=O)CCNCc1ccc(-c2ccc3ncnc(Nc4ccc(OCc5cccc(F)c5)c(Cl)c4)c3c2)o1 [Lapatinib] (partner 2 µM)
How it was run: as §1

Cell Line	relative viability ([1]; first compound 0.253 µM)	relative viability ([1]; first compound 0.8 µM)	relative viability ([1]; first compound 2.53 µM)	relative viability ([1]; first compound 8 µM)	relative viability ([2]; first compound 0.253 µM)	relative viability ([2]; first compound 0.8 µM)	relative viability ([2]; first compound 2.53 µM)	relative viability ([2]; first compound 8 µM)	relative viability ([3]; first compound 0.253 µM)	relative viability ([3]; first compound 0.8 µM)	relative viability ([3]; first compound 2.53 µM)	relative viability ([3]; first compound 8 µM)	relative viability ([4]; first compound 0.253 µM)	relative viability ([4]; first compound 0.8 µM)	relative viability ([4]; first compound 2.53 µM)	relative viability ([4]; first compound 8 µM)	relative viability ([5]; first compound 0.253 µM)	relative viability ([5]; first compound 0.8 µM)	relative viability ([5]; first compound 2.53 µM)	relative viability ([5]; first compound 8 µM)
HCC-366	0.459	0.386	0.35	0.309	0.198	0.202	0.179	0.169	0.419	0.384	0.455	0.356	0.645	0.61	0.696	0.565	1.07	0.867	0.985	0.987
HCC-827	0.67	0.621	0.719	0.61	0.261	0.258	0.278	0.255	0.495	0.292	0.479	0.471	0.389	0.383	0.417	0.364	0.202	0.18	0.227	0.191
HOP-62	0.541	0.368	0.525	0.399	0.284	0.296	0.388	0.376	0.444	0.457	0.451	0.426	0.724	0.654	0.671	0.628	0.957	0.874	1.11	0.966
IA-LM	0.89	0.815	0.868	0.752	–	–	–	–	–	–	–	–	–	–	–	–	0.842	0.902	0.837	0.783
LC-2-ad	0.768	0.737	0.696	0.656	0.282	0.276	0.246	0.263	0.533	0.534	0.513	0.455	0.597	0.525	0.638	0.588	0.977	0.974	0.893	0.938
LCLC-97TM1	0.38	0.552	0.489	0.265	0.167	0.197	0.185	0.154	0.237	0.266	0.225	0.236	0.477	0.435	0.425	0.443	0.599	0.935	0.911	0.582
LCLC-103H	0.732	0.734	0.763	0.633	0.444	0.493	0.462	0.468	0.492	0.48	0.451	0.405	0.317	0.339	0.371	0.337	–	–	–	–
LK-2	0.877	0.675	0.808	0.713	0.273	0.216	0.313	0.358	0.674	0.489	1.05	0.703	0.245	0.381	0.606	0.563	0.883	0.864	1.13	1.04
LOU-NH91	0.916	0.872	0.974	0.893	0.432	0.404	0.401	0.396	0.492	0.547	0.535	0.497	0.783	0.708	0.725	0.699	0.762	0.706	0.748	0.771
LU99A	0.256	0.299	0.23	0.268	0.169	0.163	0.187	0.175	0.397	0.423	0.385	0.381	0.943	0.869	0.816	0.871	0.893	0.968	0.973	0.89
LXF-289	1.24	1.09	1.09	1.08	0.944	1.02	0.934	0.851	0.58	0.611	0.609	0.56	0.527	0.553	0.488	0.513	0.919	0.946	0.881	0.841
NCI-H441	0.61	0.685	0.572	0.496	0.235	0.283	0.254	0.245	0.202	0.267	0.249	0.185	0.883	1.01	0.955	0.797	–	–	–	–
NCI-H522	0.657	0.564	0.663	0.608	0.979	1.12	1.08	1.04	0.87	1.02	1.31	1.15	0.621	0.661	0.724	0.671	–	–	–	–
NCI-H596	0.602	0.738	0.451	0.653	0.474	0.508	0.517	0.486	–	–	–	–	0.633	0.735	0.77	0.723	1.05	0.779	0.936	0.985
NCI-H727	0.616	0.694	0.657	0.634	–	–	–	–	0.634	0.669	0.699	0.648	0.532	0.502	0.458	0.673	0.75	0.699	0.782	0.769
NCI-H1563	–	–	–	–	0.767	0.645	0.809	0.802	–	–	–	–	0.657	0.652	0.636	0.644	1.03	0.818	0.975	0.967
NCI-H1703	0.389	0.557	0.389	0.553	–	–	–	–	–	–	–	–	–	–	–	–	1.25	1.36	0.945	0.903
NCI-H2342	0.452	0.447	0.508	0.512	0.757	0.738	0.751	0.742	0.516	0.516	0.498	0.535	0.617	0.608	0.572	0.516	–	–	–	–
SW 900	0.983	1.37	0.883	0.899	0.49	0.443	0.519	0.495	0.557	0.501	0.589	0.527	0.81	0.634	0.576	0.455	–	–	–	–
